Measurements: PubChem BioAssay AID1259246 (Broad Institute, 2017)
Records with an inconclusive call do not appear. Activity calls are given as the source filed them.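 Rule for the calls: active = valid dose-response fit whose half-maximal growth-inhibiting concentration is at or below a set limit above the top tested dose; inconclusive = flat fit with effect between 30 and 70%, or poor fit; inactive = half-maximal concentration above a set limit.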

Experiment: antibacterial activity against Clostridioides difficile – 10-point retest, dose response (AID 1259246)
Conditions: Clostridioides difficile clinical isolate growth, OD600, 24 h; at 60 µM (top of the series)

SMILES | activity change, negative = inhibition
CNC[C@@H]1Oc2ccc(N)cc2CC(=O)N([C@H](C)CO)C[C@H]1C | 0.918% (inactive)
COc1ccccc1-c1ccc2c(c1)O[C@H](CN(C)Cc1ccc3c(c1)OCO3)[C@H](C)CN([C@H](C)CO)S2(=O)=O | -2.89% (inactive)
O=C(C[C@H]1C[C@@H]2c3cc(NC(=O)C4CCC4)ccc3O[C@@H]2[C@@H](CO)O1)NCCc1ccccc1 | 0.211% (inactive)
CC(C)CC#Cc1ccc2c(c1)O[C@@H](CN(C)Cc1ccc(C(=O)O)cc1)[C@H](C)CN([C@@H](C)CO)S2(=O)=O | 2.34% (inactive)

Same assay, conditions: Clostridioides difficile clinical isolate growth, OD600, 24 h; at 68 µM (top of the series)

SMILES | activity change, negative = inhibition
C[C@@H]1CN([C@@H](C)CO)C(=O)c2cccc(NC(=O)Nc3ccc(C(F)(F)F)cc3)c2O[C@H]1CN(C)S(=O)(=O)c1ccc(Cl)cc1 | 12.7% (inactive)

Same assay, conditions: Clostridioides difficile clinical isolate growth, OD600, 24 h; at 120 µM (top of the series)

SMILES | activity change, negative = inhibition
O=C(C[C@H]1C[C@H]2c3cc(NC(=O)Nc4ccccc4)ccc3O[C@H]2[C@H](CO)O1)NC1CCCC1 | -1.4% (inactive)
C[C@H]1CCCCO[C@H](CN(C)S(=O)(=O)c2ccc(F)cc2)[C@@H](C)CN([C@@H](C)CO)C(=O)c2cc(NC(=O)Nc3cccc4ccccc34)ccc2O1 | 21.6% (inactive)
C[C@H](CO)N1C[C@H](C)[C@@H](CN(C)Cc2ccc(-c3ccccc3)cc2)Oc2c(NC(=O)Nc3ccc(C(F)(F)F)cc3)cccc2C1=O | 12.2% (inactive)
CCCC#Cc1ccc2c(c1)O[C@H](CN(C)Cc1ccc3c(c1)OCO3)[C@H](C)CN([C@H](C)CO)S2(=O)=O | 33% (inactive)
COc1ccc(-c2ccc([C@H]3[C@H](C#N)N[C@H]3CO)cc2)cc1 | -2.73% (inactive)
COc1ccc(NC(=O)Nc2cccc3c2O[C@H](CN(C)C(=O)NC2CCCCC2)[C@@H](C)CN([C@H](C)CO)C3=O)cc1 | -0.118% (inactive)
C[C@@H]1CN([C@H](C)CO)C(=O)Cc2cc(NC(=O)CCCN(C)C)ccc2O[C@H]1CN(C)C | 0.476% (inactive)
CC(C)CC#Cc1ccc2c(c1)O[C@@H](CN(C)Cc1ccc3c(c1)OCO3)[C@@H](C)CN([C@H](C)CO)S2(=O)=O | 23.6% (inactive)
CO[C@H]1CN(C)C(=O)c2cc(NC(=O)c3nc4ccccc4s3)ccc2OC[C@H](C)N(Cc2ccncc2)C[C@@H]1C | 4.91% (inactive)
COc1ccc(CN(C)C[C@@H]2OCCCC[C@H](C)Oc3ccc(NC(=O)Nc4cccc5ccccc45)cc3C(=O)N([C@@H](C)CO)C[C@H]2C)cc1 | 42% (inactive)
COc1ccc(NC(=O)Nc2cccc3c2O[C@@H](CN(C)Cc2ccc(Oc4ccccc4)cc2)[C@H](C)CN([C@H](C)CO)C3=O)cc1 | 16.6% (inactive)
CO[C@@H]1CN(C)C(=O)c2ccc(NC(=O)c3nc4ccccc4s3)cc2OC[C@@H](C)N(Cc2ccncc2)C[C@@H]1C | 14.1% (inactive)
C[C@@H]1CN([C@H](C)CO)C(=O)c2cccc(NC(=O)Nc3ccc(C(F)(F)F)cc3)c2O[C@@H]1CN(C)C(=O)Nc1ccc(F)cc1 | -4.05% (inactive)
Cc1ccc(S(=O)(=O)N[C@H]2CC[C@H](CCNC(=O)Cc3ccccn3)O[C@H]2CO)cc1 | -0.997% (inactive)
C[C@H](CO)N1C[C@H](C)[C@H](CN(C)S(=O)(=O)c2ccc(F)cc2)OCCCC[C@H](C)Oc2ccc(NC(=O)Nc3cccc4ccccc34)cc2C1=O | 34.7% (inactive)
C[C@@H]1CN([C@H](C)CO)C(=O)Cc2cc(NC(=O)C3CC3)ccc2O[C@@H]1CN(C)Cc1ccc(Cl)c(Cl)c1 | 27.9% (inactive)
C[C@H](CO)N1C[C@H](C)[C@@H](CN(C)C(=O)Nc2ccccc2)OCCCC[C@H](C)Oc2ccc(NC(=O)Nc3cccc4ccccc34)cc2C1=O | 20.2% (inactive)
C[C@H](CO)N1C[C@H](C)[C@@H](CN(C)C(=O)NC2CCCCC2)Oc2c(NC(=O)Nc3ccc(F)cc3)cccc2C1=O | 9.73% (inactive)
C[C@@H]1CN([C@H](C)CO)C(=O)Cc2cc(NC(=O)CCCN(C)C)ccc2O[C@H]1CN(C)Cc1ccc(Oc2ccccc2)cc1 | 17.1% (inactive)
C[C@H]1CN([C@@H](C)CO)S(=O)(=O)c2ccc(C3=CCCCC3)cc2O[C@@H]1CN(C)Cc1cccnc1 | 13.2% (inactive)
C[C@@H]1CN([C@H](C)CO)C(=O)Cc2cc(NC(=O)C3CC3)ccc2O[C@@H]1CN(C)Cc1ccc(Oc2ccccc2)cc1 | 22.6% (inactive)
C[C@@H]1CN([C@H](C)CO)S(=O)(=O)c2ccc(C#CC3CCCC3)cc2O[C@H]1CN(C)C | 4.79% (inactive)

SMILES | activity change, negative = inhibition
C[C@@H]1CN([C@H](C)CO)C(=O)c2cc(NC(=O)Nc3cccc4ccccc34)ccc2O[C@@H](C)CCCCO[C@H]1CN(C)S(=O)(=O)c1ccccc1 | 9.12% (inactive)
CNC[C@H]1OCCCC[C@H](C)Oc2ccc(NC(=O)Nc3cccc4ccccc34)cc2C(=O)N([C@H](C)CO)C[C@@H]1C | 11.4% (inactive)
C[C@H]1CN([C@@H](C)CO)C(=O)c2cccc(NC(=O)Nc3ccccc3)c2O[C@H]1CN(C)Cc1ccc(Oc2ccccc2)cc1 | 24.3% (inactive)
C/C=C/c1ccc2c(c1)O[C@H](CN(C)Cc1ccc(F)cc1)[C@H](C)CN([C@H](C)CO)S2(=O)=O | 11.8% (inactive)
C[C@@H]1CN([C@@H](C)CO)C(=O)c2cccc(NC(=O)Nc3ccc(C(F)(F)F)cc3)c2O[C@H]1CN(C)Cc1ccc(-c2ccccc2)cc1 | 20.3% (inactive)
C[C@H](CO)N1C[C@H](C)[C@@H](CN(C)Cc2ccncc2)Oc2cc(-c3ccccc3)ccc2S1(=O)=O | 21.1% (inactive)
C[C@@H]1CN([C@@H](C)CO)S(=O)(=O)c2ccc(C#CC3CCCCC3)cc2O[C@@H]1CN(C)Cc1cccnc1 | 13.1% (inactive)
CC(C)CC#Cc1ccc2c(c1)O[C@H](CN(C)Cc1ccccc1)[C@@H](C)CN([C@@H](C)CO)S2(=O)=O | 35.7% (inactive)
C[C@H]1CN([C@@H](C)CO)S(=O)(=O)c2ccc(C#Cc3ccccc3F)cc2O[C@@H]1CN(C)C | 10.1% (inactive)
CNC[C@H]1Oc2cc(Br)ccc2S(=O)(=O)N([C@@H](C)CO)C[C@H]1C | 5.27% (inactive)
CNC[C@H]1Oc2c(NC(=O)Nc3ccc4c(c3)OCO4)cccc2C(=O)N([C@@H](C)CO)C[C@H]1C | 4.27% (inactive)
Cc1ccc(S(=O)(=O)N[C@@H]2CC[C@@H](CCNS(=O)(=O)Cc3ccccc3)O[C@@H]2CO)cc1 | -1.17% (inactive)
C[C@H](CO)N1C[C@H](C)[C@@H](CN(C)C(=O)NC2CCCCC2)Oc2c(NC(=O)Nc3ccc(C(F)(F)F)cc3)cccc2C1=O | 28.9% (inactive)
COc1ccc(NC(=O)Nc2cccc3c2O[C@H](CN(C)Cc2ccc(Oc4ccccc4)cc2)[C@@H](C)CN([C@H](C)CO)C3=O)cc1 | 17.1% (inactive)
COc1ccc(CNC(=O)C[C@H]2C[C@@H]3c4cc(NC(=O)NC5CCCC5)ccc4O[C@@H]3[C@@H](CO)O2)cc1 | 6.58% (inactive)
O=C(C[C@H]1C[C@H]2c3cc(NS(=O)(=O)c4ccc(F)cc4)ccc3O[C@H]2[C@@H](CO)O1)NCc1ccc(-c2ccccc2)cc1 | 10.6% (inactive)
CO[C@H]1CN(C)C(=O)c2cc(NC(=O)Nc3ccc4c(c3)OCO4)ccc2OC[C@H](C)NC[C@H]1C | -6.51% (inactive)
CO[C@@H]1CN(C)C(=O)c2cc(NC(=O)c3ccc(-c4ccccc4)cc3)ccc2OC[C@H](C)NC[C@H]1C | 9.68% (inactive)
C[C@H](CO)N1C[C@H](C)[C@H](CN(C)C(=O)NC2CCCCC2)Oc2c(NC(=O)Nc3ccc(C(F)(F)F)cc3)cccc2C1=O | 32.2% (inactive)
C[C@@H]1CN([C@@H](C)CO)C(=O)Cc2cc(NS(=O)(=O)c3cccs3)ccc2O[C@@H]1CN(C)S(=O)(=O)c1ccc(Cl)cc1 | 32.8% (inactive)
C[C@@H]1CN([C@@H](C)CO)C(=O)c2cccc(NC(=O)Nc3ccc(C(F)(F)F)cc3)c2O[C@H]1CN(C)S(=O)(=O)c1ccc(Cl)cc1 | 50.7% (inactive)

Same assay, conditions: Clostridioides difficile clinical isolate growth, OD600, 24 h; at 135 µM (top of the series)

SMILES | activity change, negative = inhibition
C[C@@H]1CN([C@H](C)CO)C(=O)Cc2cc(NC(=O)c3ccncc3)ccc2O[C@@H]1CN(C)Cc1ccc(-c2ccccc2)cc1 | 20.6% (inactive)
C[C@H]1CN([C@@H](C)CO)C(=O)Cc2cc(NC(=O)C3CC3)ccc2O[C@H]1CN(C)Cc1ccc(Oc2ccccc2)cc1 | 26.6% (inactive)
O=C(N[C@H]1CC[C@H](CCNS(=O)(=O)Cc2ccccc2)O[C@H]1CO)c1ccccc1F | -3.44% (inactive)
O=C(C[C@H]1C[C@@H]2c3cc(NC(=O)C4CCC4)ccc3O[C@@H]2[C@H](CO)O1)NCc1ccc(Cl)cc1 | 4.22% (inactive)
C[C@@H]1CN([C@H](C)CO)C(=O)Cc2cc(NC(=O)Nc3ccccc3)ccc2O[C@@H]1CN(C)Cc1ccc(-c2ccccc2)cc1 | 12.7% (inactive)
CO[C@@H]1CN(C)C(=O)c2cc(NC(=O)c3ccc(Oc4ccccc4)cc3)ccc2OC[C@H](C)NC[C@H]1C | 24.9% (inactive)
CO[C@H]1CN(C)C(=O)c2cc(NC(=O)c3ccc(-c4ccccc4)cc3)ccc2OC[C@H](C)NC[C@@H]1C | 34.1% (inactive)
C[C@@H]1CN([C@H](C)CO)C(=O)Cc2cc(NS(=O)(=O)c3ccccc3)ccc2O[C@@H]1CN(C)Cc1ccc(-c2ccccc2)cc1 | 31.9% (inactive)
COc1ccc(NC(=O)N(C)C[C@@H]2Oc3ccc(NC(=O)CCCN(C)C)cc3CC(=O)N([C@H](C)CO)C[C@H]2C)cc1 | 1.15% (inactive)
COc1ccc(CN(C)C[C@H]2Oc3ccc(NC(=O)C4CC4)cc3CC(=O)N([C@H](C)CO)C[C@H]2C)cc1 | 0.998% (inactive)
O=C(C[C@H]1C[C@@H]2c3cc(NC(=O)Nc4ccc(F)cc4)ccc3O[C@@H]2[C@H](CO)O1)NC1CCCCC1 | -1.13% (inactive)
